Test results published in ChEMBL document CHEMBL5550209, “Hit-to-Lead Optimization of Heterocyclic Carbonyloxycarboximidamides as Selective Antagonists at Human Adenosine A3 Receptor” (J Med Chem, 2024).

Assay: Plasma protein binding in human at 10 uM measured upto 24 hrs by equilibrium dialysis method

`CN[C@H]1CC[C@@H](c2ccc(Cl)c(Cl)c2)c2ccccc21` [SERTRALINE] gave a fraction unbound at 24 h, 10 µM of 0.01.
